In PubChem BioAssay AID179 (DTP/NCI, 2004) one finds EC50, IC50 and outcome data, which are given here for 64 compounds.

Values joined by “and” are separate entries in the source; they are usually repeats but may differ in a detail not shown here. Identical values can stand only once. Active and inactive are the calls of the source.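 How the source made its calls: active means compounds giving half or more protection of infected cells from virus-caused growth loss, again on retest; inactive means the rest.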 Where a SMILES comes first, the peptide text is derived from it. The star is where a group is joined. Cbz = O=C(OCc1ccccc1)*; Boc = CC(C)(C)OC(=O)*; OBn = c1ccc(CO*)cc1

In this assay the test system is CEM cells HIV-1 protection, formazan growth assay. In words: NCI AIDS Antiviral Assay. The conditions noted are these: for IC50: measured here: growth of uninfected CEM cells. An outline of the steps:
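Human CEM cells, uninfected and HIV-1-infected, exposed to five drug concentrations; growth measured by soluble formazan assay and scored as percent protection from infection, with protecting compounds retested.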

As to `COc1ccc(C2C3C(=O)C=CC(=O)C3[C@@H]2C)cc1OC` (stereo partly drawn), the EC50 – broadly, the concentration that produces a half-maximal response – was > 174 µM and the IC50 (usually the point on the concentration scale where inhibition reaches its midpoint) was determined as 13.2 µM. Turning to `O=C(Nc1ccc2cc(S(=O)(=O)O)ccc2c1)c1ccc(N=Nc2cc(S(=O)(=O)O)c3ccccc3c2O)cc1`, the EC50 was > 50.1 µM and the concentration for half-maximal inhibition (IC50) was > 50.1 µM.

On to `CCC(COC(=O)CC[C@@H](NC(=O)C(C)NC(=O)C(C)OC1C(O)C(CO)OC(OCc2ccccc2)C1NC(C)=O)C(N)=O)NC1c2ccccc2Nc2cccc([N+](=O)[O-])c21` (stereo partly drawn), for which the EC50 is > 200 µM and the IC50 stood at 145 µM. In the same order, the values of `CCOC(=O)CCC(=O)C1c2cccc(O)c2C(=O)c2c(O)cc(C)cc21` (stereo not drawn) are > 37.2 µM and 1.35 µM.

For `COC1/C=C/OC2(C)Oc3c(C)c(O)c4c(O)c(c(C=NNC(=O)c5ccc(N)cc5)c(O)c4c3C2=O)NC(=O)/C(C)=C/C=C/C(C)C(O)C(C)C(O)C(C)C(OC(C)=O)C1C` (stereo not drawn), the EC50 is > 138 µM and the half-inhibitory concentration (IC50) worked out at 107 µM. Take `NCCC1([N+](=O)[O-])C=CN=CC1` (stereo not drawn): the outcome was inactive. On to `COC(=O)C(NC(=O)C(C)NC(=O)C1CCCN1C(=O)CNC(=O)C(CO)NC(=O)C(NC(=O)OCc1ccccc1)C(C)O)C(C)O` (stereo not drawn) (Cbz-TSGPAT-OMe; configuration not given here), for which the EC50 is > 363 µM and the IC50 was > 363 µM. As to `O=CC(O)C(O)C(O)C(O)C(=O)NCCCCCCCCCCCCNC(=O)C(O)C(O)C(O)C(O)C=O` (stereo not drawn), the EC50 was > 200 µM and the IC50 was > 200 µM. Take `O/N=C(\CSSC/C(=N/O)c1ccc(Cl)cc1)c1ccc(Cl)cc1`: the EC50 was > 200 µM and the 50% inhibitory concentration (IC50) is 10.7 µM.

Regarding `CC(C)(C)[Si](C)(C)OCC1OC(n2ccc(=O)[nH]c2=O)C(O[Si](C)(C)C(C)(C)C)[C@@]12O[C@H]2C(N)=O` (stereo partly drawn), the EC50 is > 200 µM and the IC50 came to 7.76 µM.

For `CCC(=C(C#N)C#N)c1cc(OC)c(OC)c(OC)c1`, the EC50 is > 26.3 µM and the IC50 is > 26.3 µM. As to `COC(=O)C1=C(C(=O)NNc2ccccc2)N(c2cccnc2Cl)C(c2ccccc2)=CC1c1ccccc1` (stereo not drawn), the EC50 is > 200 µM and the half-inhibitory concentration (IC50) worked out at 22.9 µM. On to `N#Cc1c2c(cn3c1nc1ccccc13)CCCCC2`, for which the EC50 was > 151 µM and the half-maximal inhibitory concentration (IC50) was > 151 µM.

With `Cc1cn(C2CC(NC(=O)N(C)O)C(CO[Si](C)(C)C(C)(C)C)O2)c(=O)[nH]c1=O` (stereo not drawn), the EC50 was > 200 µM and the IC50 came to 107 µM. Regarding `COc1ccccc1Cc1nc(-c2ccccc2)nn(C2OC(COC(C)=O)C(OC(C)=O)C(OC(C)=O)C2OC(C)=O)c1=S` (stereo not drawn), the result was inactive. For `CC1OC(c2ccccc2)=CC(OCc2ccccc2)[C@H]1OCc1ccccc1` (stereo partly drawn), the EC50 was > 200 µM and the IC50 is 91.2 µM. As to `COC(=O)CCCC=C(c1cc(F)c(OC)c(C(=O)OC)c1)c1cc(F)c(OC)c(C(=O)OC)c1`, the EC50 is 1.7 µM and the 50% inhibitory concentration (IC50) stood at 64.6 µM.

With `COc1ccc(Nc2nc3ccccc3nc2C(=O)O)cc1OC`, the EC50 was > 200 µM and the IC50 came out at 85.1 µM. In the same order, the values of `COc1cccc(/C=N\N=C\c2cccc(OC)c2O)c1O` are > 200 µM and 66.1 µM. For `O=C(OCC(O)CO)c1c(Cl)c(Cl)c(Cl)c(Cl)c1-c1c2cc(I)c(=O)c(I)c-2oc2c(I)c(O)c(I)cc12` (stereo not drawn), the EC50 was > 200 µM and the half-maximal inhibitory concentration (IC50) stood at 2.63 µM. In the same order, the values of `CSc1c2c([nH]c(=O)c1C#N)-c1ccccc1CC2` are > 200 µM and 166 µM. For the compound `O=C(O)c1ccccc1/C=C1/Cc2ccc3c(c2C1=O)CCC3`, the outcome was inactive.

As to `C/C(CCn1[nH]c(=O)ccc1=O)=N\Nc1ccc([N+](=O)[O-])cc1[N+](=O)[O-]`, the outcome was inactive and the half-inhibitory concentration (IC50) was 20 µM. For `O=C(CNc1ccccn1)Nn1cnc2ccc(S(=O)(=O)Nc3ccccn3)cc2c1=O`, the EC50 was > 200 µM and the concentration for half-maximal inhibition (IC50) was > 200 µM. For `Cc1cc(N(CCC#N)CCC#N)ccc1/C=C(\N=[N+]=[N-])C(=O)NC(=O)COc1ccccc1`, the EC50 was > 8.32 µM and the IC50 was > 8.32 µM. Take `COc1ccccc1NC(=O)C1=C(C)NC(C)=C(C(=O)Nc2ccccc2OC)C1c1ccccc1[N+](=O)[O-]`: the EC50 is > 13.5 µM and the IC50 is > 13.5 µM.

As for `Clc1ccc2c(Cl)ncnc2c1I`, the EC50 was > 30.9 µM and the IC50 was found to be 7.41 µM.

In the case of `CS(=N)(=O)CCC(N)P(=O)(O)O` (stereo not drawn), the EC50 is > 200 µM and the IC50 is > 200 µM.

Take `O=C(Nc1cc(Cl)c(Cl)cc1Cl)C(=O)C(C(=O)c1ccc(Cl)c(Cl)c1)C1OC(=O)c2ccccc21` (stereo not drawn): the EC50 is > 45.7 µM and the IC50 amounted to 22.4 µM. The like results for `CCOP(=O)(OCC)O/C(C)=C\C(=O)OC` were, in that order, > 501 µM and > 501 µM.

As for `CN(C)c1ccc(/C=N\N2C(=O)c3ccccc3C2=O)cc1`, the EC50 was > 123 µM and the IC50 is > 123 µM. `CC1=Nc2ccccc2S/C1=C(/C)NNC(=O)C(N)=O`: the EC50 is > 89.1 µM and the 50% inhibitory concentration (IC50) is > 89.1 µM. Turning to `O=C1/C(=C\c2cccc(Oc3ccccc3)c2)SC(c2ccccc2)N1c1cccc(Cl)c1` (stereo not drawn), the EC50 is > 200 µM and the IC50 was 16.2 µM. Take `CN=c1ssc(/N=C(\SC)N(C)C)[n+]1C`: the outcome was inactive. On the same count and under the same terms, with `c1ccc(-c2sc(-c3ccccc3)c3c2[C@H](c2ccccc2)S[C@H]3c2ccccc2)cc1` the entry was “inactive”. For the compound `CC(C)CC(NC(=O)OC(C)(C)C)C(=O)N1CCCC1C(=O)OCc1ccccc1` (stereo not drawn) (Boc-Leu-Pro-OBn; configuration not given here), the EC50 was > 200 µM and the 50% inhibitory concentration (IC50) amounted to 52.5 µM.

As for `O=C(OCC1CCCN2CCCCC12)c1ccncc1` (stereo not drawn), the EC50 is 19.1 µM and the half-inhibitory concentration (IC50) is > 200 µM. In the same order, the values of `N#C/C(=C\NC(=S)Nc1ccc(S(N)(=O)=O)cc1)C(=O)c1ccc2ccccc2c1` are > 200 µM and 155 µM. In the same order, the values of `CN(C)CCCNC(=O)c1cc(NC(=O)c2cc(NC(=O)c3cc(NC(=O)/C=C/C(=O)Nc4cn(C)c(C(=O)Nc5cn(C)c(C(=O)Nc6cn(C)c(C(=O)NCCCN(C)C)n6)n5)n4)cn3C)cn2C)cn1C` are > 50.1 µM and > 50.1 µM. The like results for `CCOP(=O)(OCC)/C(C#N)=C/c1cccc(Oc2ccccc2)c1` were, in that order, > 52.5 µM and 30.2 µM. `O=C(C(=C(I)I)c1ccccc1)c1ccccc1`: the EC50 was > 200 µM and the IC50 turned out to be 19.5 µM. As to `CSc1cc(-c2ccccn2)nc(-c2ccccn2)c1.CSc1cc(-c2ccccn2)nc(-c2ccccn2)c1.[Mn+2].[O-][Cl+3]([O-])([O-])[O-]`, the EC50 is > 0.2 µM and the IC50 is 0.0631 µM. The like results for `COc1ccccc1NC(=S)/N=C/c1c(O)[nH]c(=O)[nH]c1=O` were, in that order, > 200 µM and > 200 µM. The like results for `Cc1ccc(NCCCN2CCN(CCCNc3ccc(C)c4sc5ccccc5c(=O)c34)CC2)c2c(=O)c3ccccc3sc12` were, in that order, > 100 µM and > 100 µM. In the same order, the values of `O=C(O)CSC(NC(=O)C(C(F)(F)F)C(F)(F)F)(C(F)(F)F)C(F)(F)F` are > 200 µM and > 200 µM. On to `COc1ccc2cc3[nH]c(=O)cc(O)c3cc2c1OC`, for which the result was inactive.

Turning to `CN1C(=O)C2(C)SSC1(C)C(=O)N2C`, the EC50 is > 200 µM and the IC50 came to 12 µM.

Turning to `Oc1[nH]c2ccccc2c1N=NC(=S)Nc1cccc(Cl)c1`, the EC50 is > 200 µM and the IC50 turned out to be 4.57 µM. With `CC(NC(=O)CNC(=O)C(N)CO)C(=O)NC(CCC(=O)O)C(=O)NC(CCCCN)C(=O)NC(C(=O)NC(CCC(N)=O)C(=O)NC(CCC(=O)O)C(=O)NC(CCC(N)=O)C(=O)NC(CCCN=C(N)N)C(=O)NC(C)C(=O)NC(CC(N)=O)C(=O)NC(C)C(=O)NC(Cc1cnc[nH]1)C(=O)NC(CO)C(=O)O)C(C)O` (stereo not drawn) (H-SGAEKTQEQRANAHS-OH; configuration not given here), the EC50 is > 100 µM and the IC50 is > 100 µM. In the case of `O=C1OC(Sc2ccccc2)(Sc2ccccc2)c2cccc3cccc1c23`, the outcome was inactive. The same measure, in the same setting: with `Fc1ccc(Oc2nc3ccccc3nc2-c2ccccc2)cc1` the entry was “inactive”. As to `O=C1c2cccn2-c2ccccc2OC1c1ccc(NC(=S)Nc2ccc(Cl)cn2)cc1` (stereo not drawn), the EC50 was > 200 µM and the concentration for half-maximal inhibition (IC50) came to 15.8 µM. In the same order, the values of `Cc1ccc(S(=O)(=O)OC(c2ccccc2)c2ccccc2)cc1` are > 15.5 µM and 10.5 µM. The like results for `O=C1C=C(Nc2ccccc2C(=O)CC(=O)C(=O)Nc2ccc(Cl)cc2)c2ccccc2C1=O` were, in that order, > 39.8 µM and 2.19 µM.

With `CCN(CCCc1ccccc1)CCCc1ccccc1`, the EC50 is > 200 µM and the IC50 came out at 105 µM. Turning to `CC1(C)CC(O)C2=C(O1)C(=O)c1ncccc1C2=O` (stereo not drawn), the outcome was inactive. Regarding `C=C(C)[C@]12CC(C)C34OC(/C=C\C=C\CCCCCCCCC)(O[C@@H]1[C@@H]3[C@@H]1O[C@]1(CO)[C@@H](O)[C@]1(O)C(=O)C(C)=C[C@@H]41)O2` (stereo partly drawn), the half-maximal effective concentration (EC50) is > 0.2 µM and the IC50 turned out to be 0.00389 µM. Consider `CCOC(=O)C1NS(=O)(=O)NC(C(=O)OCC)NS(=O)(=O)N1` (stereo not drawn), for which the outcome was inactive.

For `O=C(/C=C/c1ccc(O)c(O)c1)O[C@@H](C(=O)O)[C@@H](OC(=O)/C=C/c1ccc(O)c(O)c1)C(=O)O`, the EC50 is > 200 µM and the IC50 was 17 µM. For the compound `COC(=O)C1([Se]c2ccccc2)CCN2CCC(OCc3ccccc3[N+](=O)[O-])C21` (stereo not drawn), the EC50 is > 200 µM and the concentration for half-maximal inhibition (IC50) is > 200 µM.

Regarding `Clc1nc(Cl)nc(Nc2ccccc2Cl)n1`, the EC50 was > 200 µM and the concentration for half-maximal inhibition (IC50) was 97.7 µM.

On to `NC(C(=O)O)C(CC(=O)O)c1ccccc1` (stereo not drawn), for which the EC50 was > 200 µM; the IC50 was 112 µM and > 200 µM. Consider `C/C=C1\CN2CCc3c([nH]c4ccccc34)C2CC1CC(=O)N(C)C` (stereo not drawn), for which the EC50 was > 200 µM and the IC50 was > 200 µM.

For the compound `COc1cccc(NC(=O)CC(=O)Nc2cccc(OC)c2)c1`, the EC50 is > 200 µM and the half-maximal inhibitory concentration (IC50) is > 200 µM.
